Data set [1] is described as follows: Morris Water Maze (spatial memory). As to conditions: rat, after 4 days of training.
Data set [2] is described as follows: Tail-flick (TF) antinociception after i.v. administration. Format: in vivo. The settings on record: rat; for Antinociception (tail-flick): i.v., 5.6 mg/kg.
Data set [3] can be described thus: Spared nerve injury (SNI) neuropathic pain, Randall-Selitto paw pressure. The class given is in vivo. As to conditions: rat SNI; for Reversal time of hyperalgesia (significantly above vehicle): intrathecal cumulative doses.
The nature of data set [4]: Tolerance: intrathecal cumulative dose-response in tail-flick test before and after 1 week osmotic minipump. The class given is in vivo. The settings on record: rat; for ED50 antinociception on Day 7 after minipump implantation: morphine 2 μg/hr or analog 0.056 μg/hr for about 7 days; for ED50 antinociception in opioid naïve animals: before minipump.
Data set [5] addresses human delta opioid receptor (Homo sapiens, UniProt P41143). The experiment in a line: biochemical. The class given is binding.
The next data set addresses T1, human mu opioid receptor (Homo sapiens, UniProt P35372).
T1 construct: expressed in transfected cells; host or cells: CHO cells
Put plainly: biochemical. Format: binding.

The next data set relates to glia. The experiment in a line: Glial activation (GFAP and phospho-p38 staining) after 1 week of treatment. As to conditions: rat, after 1 week intrathecal treatment.
Data set [6] addresses T2, cloned human delta opioid receptor (Homo sapiens, UniProt P41143).
T2 construct: expressed in transfected cells
The experiment in a line: biochemical.

Data set [7] in a line: Conditioned place preference (CPP). As to conditions: rat, i.v., doses producing maximal antinociception.
The target of data set [8] is T3, cloned human mu opioid receptor (Homo sapiens, UniProt P35372).
T3 construct: expressed in transfected cells
T3 sequence (P35372 whole entry): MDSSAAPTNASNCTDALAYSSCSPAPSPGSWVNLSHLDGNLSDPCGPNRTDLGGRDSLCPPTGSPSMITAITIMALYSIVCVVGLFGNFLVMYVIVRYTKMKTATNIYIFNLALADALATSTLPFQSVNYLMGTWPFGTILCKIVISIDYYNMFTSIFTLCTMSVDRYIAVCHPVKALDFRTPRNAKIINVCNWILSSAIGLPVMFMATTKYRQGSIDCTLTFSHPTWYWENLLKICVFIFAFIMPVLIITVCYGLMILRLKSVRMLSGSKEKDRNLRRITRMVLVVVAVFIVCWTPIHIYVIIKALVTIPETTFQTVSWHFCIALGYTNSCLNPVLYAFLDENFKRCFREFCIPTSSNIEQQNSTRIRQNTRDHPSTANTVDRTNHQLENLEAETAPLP
Put plainly: biochemical. The class given is biochemical.

Data set [9] is described as follows: Rotorod test of motor coordination. As to conditions: rat, cumulative i.v. doses. For orientation: Falling from the rotarod earlier than controls is read as motor impairment.
The target of data set [10] is T2, cloned human delta opioid receptor. The experiment in a line: 35S-GTPγS functional assay, delta antagonism against ED80 dose of SNC80. The settings on record: for Delta Antagonist efficacy: against ED80 dose of SNC80. The class given is biochemical.
Another data set in a line: Solubility. The class given is physicochemical. On the procedure:
The solubility of the peptides of Formula I (e.g., in saline or physiologic buffer) typically is enhanced relative to the prior art tetrapeptide analogs of the endomorphins Addition of a hydrophilic amino acid and amidated C-terminus to the relatively hydrophobic tetrapeptide sequences Tyr-cyclo[D-Lys-Trp-Phe] (SEQ ID NO:10) and Tyr-cyclo[D-Lys-Phe-Phe] […] For example, Compound 1 was soluble in water, saline and 20% PEG/saline at about 43, 21 and 90 mg/mL, respectively, compared to less than about 2 mg/mL for the previously described compounds. While increases in solubility are associated with improved pharmaceutical delivery properties, higher solubility is also often associated with reduced functional activity (e.g., receptor binding) that may depend on lipophilicity.

In data set [11] the target is human kappa opioid receptor (Homo sapiens, UniProt P41145). The experiment in a line: biochemical. The class given is binding.
human kappa opioid receptor, sequence (P41145 whole entry): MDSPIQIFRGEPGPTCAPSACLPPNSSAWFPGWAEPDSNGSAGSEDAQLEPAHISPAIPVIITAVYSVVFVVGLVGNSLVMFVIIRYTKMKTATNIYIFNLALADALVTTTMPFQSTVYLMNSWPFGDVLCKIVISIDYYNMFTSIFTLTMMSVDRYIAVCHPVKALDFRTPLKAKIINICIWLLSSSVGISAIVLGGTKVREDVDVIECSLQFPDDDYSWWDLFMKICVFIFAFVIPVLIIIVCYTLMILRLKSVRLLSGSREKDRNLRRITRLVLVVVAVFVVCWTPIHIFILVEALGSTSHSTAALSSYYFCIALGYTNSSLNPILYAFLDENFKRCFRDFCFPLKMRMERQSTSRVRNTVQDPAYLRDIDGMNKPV
Data set [12] deals with cloned human kappa opioid receptor (Homo sapiens, UniProt P41145). The experiment in a line: biochemical.
cloned human kappa opioid receptor, sequence (P41145 whole entry): as above
The conditions of data set [13]: rat.

The results in this text go back to patent US8716436B2 (priority 2010, dated 2014).

≈ marks a conversion by molar mass, not a printed value. Like-named read-outs stand apart in the source and are kept apart here. Where a SMILES comes first, the peptide text is derived from it.

T2 sequence (P41143 whole entry): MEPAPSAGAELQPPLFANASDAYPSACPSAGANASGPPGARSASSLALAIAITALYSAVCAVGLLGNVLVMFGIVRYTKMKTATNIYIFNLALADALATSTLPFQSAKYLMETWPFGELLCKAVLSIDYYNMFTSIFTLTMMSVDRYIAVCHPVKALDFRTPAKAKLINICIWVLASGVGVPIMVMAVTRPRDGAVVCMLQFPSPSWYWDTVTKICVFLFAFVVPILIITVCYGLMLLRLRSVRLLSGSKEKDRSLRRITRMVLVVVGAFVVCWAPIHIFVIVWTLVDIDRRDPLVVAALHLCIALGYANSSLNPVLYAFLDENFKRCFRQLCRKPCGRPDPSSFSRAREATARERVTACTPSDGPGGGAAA
human delta opioid receptor, sequence (P41143 whole entry): as above
T1 sequence (P35372 whole entry): as the sequence (P35372 whole entry) above

What is called Ki is the dissociation constant of the complex between target and ligand, obtained from inhibition or displacement. Broadly, the EC50 is the concentration needed to bring the measured effect to its halfway point. One may read the IC50 as the concentration needed to halve the response being measured. Read a low IC50 as inhibition by little substance. As for `NC(=O)[C@@H]1CCCCNC(=O)CC[C@@H](NC(=O)[C@@H](N)Cc2ccc(O)cc2)C(=O)N[C@@H](Cc2ccccc2)C(=O)N[C@@H](Cc2ccccc2)C(=O)N1` [Compound 2, Tyr-c[D-Glu-Phe-Phe-Lys]-NH2], the “Impairment of spatial memory (latency to and distance from platform)” value in data set [1] is “did not produce significant impairment”. Besides, the “Antinociception (TF latency) relative to morphine” value in data set [2] (cumulative i.v. doses, at 135 and 155 minutes) is “significantly longer antinociception”. The “Antinociception (tail-flick)” value in data set [2] is on record as “antinociception similar to the 10 mg dose of morphine”. For the same compound, the “Reversal time of hyperalgesia (significantly above vehicle)” value in [3] was roughly 260 min. Moreover, in data set [4] (after 1 week minipump), the “Shift in ED50 (tolerance)” value is given as “about 8.5 fold”. Also, the “ED50 antinociception on Day 7 after minipump implantation” value in data set [4] was “about 0.11±0.02 μg”. For the same compound, in data set [4] (tail-flick), the “Potency relative to morphine on a molar basis” value is recorded as “about 40 fold”. Moreover, the “ED50 antinociception in opioid naïve animals” value in [4] (tail-flick) turned out to be 0.01 µg. The inhibition constant (Ki) in data set [5] is 0.069 µM; on human mu opioid receptor, 0.00073 µM. Besides, the “Glial activation (integrated density of GFAP and pp38 staining)” value (shortened to “Glial activation”) in the data set with glia is reported as “activation was not significantly different from vehicle”. Also, the EC50 is greater than 100 µM in data set [6] and 0.00099 µM in [8]. Moreover, the “Conditioned place preference (time spent on the drug side)” value (“Conditioned place preference” below) in [7] is listed as “no significant CPP”. The “Motor impairment (rotorod)” value in data set [9] is recorded as “significantly less than that of morphine”. Further, inhibition in data set [10] was half-maximal at 2.75 µM (IC50). Further, the “Delta Antagonist efficacy” value in data set [10] worked out at 51.
Take `NC(=O)[C@@H]1CCC(=O)NCCCC[C@@H](NC(=O)[C@@H](N)Cc2ccc(O)cc2)C(=O)N[C@@H](Cc2c[nH]c3ccccc23)C(=O)N[C@@H](Cc2ccccc2)C(=O)N1` [Compound 1, Tyr-c[D-Lys-Trp-Phe-Glu]-NH2]: the “Antinociception (TF) relative to morphine” value in data set [2] (cumulative doses, about 140 to 180 minutes after injection) is “greater antinociception”. In data set [2], the “Antinociception (tail-flick)” value was “antinociception similar to the 10 mg dose of morphine”. In data set [3] (intrathecal), the “Time at which scores were significantly above those of morphine” value was in the range of 155 to 215 min. The Ki amounted to 0.132 µM in data set [5] and 0.00049 µM on human mu opioid receptor. The “Glial activation” value in the data set on glia is “activation was not significantly different from vehicle”. The EC50 in [6] was greater than 100 µM; in data set [8] it was 0.00015 µM. Besides, the “Agonist EC50 mu” value in [8] is on record as “significantly greater potency than the reference compound, DAMGO”. Further, the “Agonist efficacy at the mu receptor” value in data set [8] is “full efficacy agonist”. Moreover, in data set [10], the IC50 came out at 0.105 µM. Besides, the results for the “Delta Antagonist efficacy” value in data set [10] and in data set [10] (listed as Comp. 1) were “full efficacy delta antagonism” and 93, respectively. In addition, the solubility is roughly 90 mg/mL (≈ 120 mM) in “Solubility” (20% PEG/saline, read-out: Solubility in 20% PEG/saline); roughly 21 mg/mL (≈ 27.9 mM) in “Solubility” (saline, read-out: Solubility in saline); roughly 43 mg/mL (≈ 57.1 mM) in the data set “Solubility” (water, read-out: Solubility in water).
With `N[C@@H](Cc1ccc(O)cc1)C(=O)N[C@@H]1CCCCNC(=O)[C@H](Cc2ccccc2)NC(=O)[C@H](Cc2ccccc2)NC1=O` [ck2, Tyr-c[D-Lys-Phe-Phe], reference compound] (HELM PEPTIDE1{Y.[dK].F.F}$PEPTIDE1,PEPTIDE1,2:R3-4:R2$$$V2.0; bridges inferred), in data set [5], affinity was put at a Ki of 0.003 µM and the “Selectivity Delta/Mu (binding)” value is 9. Also, in data set [11], the Ki came out at 0.012 µM and the “Selectivity Kappa/Mu (binding)” value is 33. The Ki on human mu opioid receptor worked out at 0.00036 µM. Besides, in data set [6], the EC50 came to 0.007 µM and the “Selectivity delta/mu (activation)” value came to 44. In addition, the EC50 in [8] came out at 0.00015 µM. For the same compound, in data set [12], the EC50 was determined as 0.206 µM and the “Selectivity kappa/mu (activation)” value is 1374.
As to `N[C@@H](Cc1ccc(O)cc1)C(=O)N[C@@H]1CCCCNC(=O)[C@H](Cc2ccccc2)NC(=O)[C@H](Cc2c[nH]c3ccccc23)NC1=O` [ck1, Tyr-c[D-Lys-Trp-Phe], reference compound] (HELM PEPTIDE1{Y.[dK].W.F}$PEPTIDE1,PEPTIDE1,2:R3-4:R2$$$V2.0; bridges inferred), the Ki in [5] came out at 0.028 µM; in data set [11], 0.035 µM; on human mu opioid receptor, 0.00032 µM. Further, in [5], the “Selectivity Delta/Mu (binding)” value amounted to 90. Further, in data set [11], the “Selectivity Kappa/Mu (binding)” value came out at 111. Moreover, the EC50 in data set [6] stood at 0.138 µM; in [8] it was 0.00021 µM; in data set [12], 0.47 µM. In [6], the “Selectivity delta/mu (activation)” value was found to be 658. For the same compound, the “Selectivity kappa/mu (activation)” value in data set [12] is 2236.
“Tyr-c[D-Lys-Trp-Phe-Glu]-Gly-NH2 [Compound 3]”: in data set [10], the “Delta Antagonist efficacy” value is given as “full efficacy delta antagonism”.
As to `NC(=O)[C@@H]1CC(=O)NCCCC[C@@H](NC(=O)[C@@H](N)Cc2ccc(O)cc2)C(=O)N[C@@H](Cc2c[nH]c3ccccc23)C(=O)N[C@@H](Cc2ccccc2)C(=O)N1` [Compound 5, Tyr-c[D-Lys-Trp-Phe-Asp]-NH2], the results for the Ki (in data set [5]; on human mu opioid receptor) were 0.14 µM and 0.00043 µM, respectively. Moreover, the “Glial activation” value in the data set with glia was “activation was not significantly different from vehicle”. In addition, the figures for the EC50 in data set [6] and in data set [8] were greater than 100 µM and 0.00022 µM, respectively. Also, in data set [7], the “Conditioned place preference” value is “no significant CPP”. The same compound displayed an IC50 in data set [10] of 0.557 µM. The “Delta Antagonist efficacy” value in [10] was determined as 100.
As for `CN1CC[C@]23c4c5ccc(O)c4O[C@H]2[C@@H](O)C=C[C@H]3[C@H]1C5` [Morphine, morphine, reference compound], the “Impairment of spatial memory (latency to and distance from platform)” value in [1] is “produced impairment of spatial memory”. Besides, in data set [3] (intrathecal), the “Dose required to fully (100%) reverse hyperalgesia” value is recorded as “about 1.14 μg”. Besides, the “Reversal time of hyperalgesia (significantly above vehicle)” value in data set [3] is “about 80 min”. Also, the “ED50 antinociception on Day 7 after minipump implantation” value in data set [4] came out at 16 ± 3.3 µg. Further, the “ED50 antinociception in opioid naïve animals” value in data set [4] (tail-flick) was 0.253 µg. Also, in the data set with glia, the “Glial activation” value is given as “produced significant glial activation”. Further, the “Conditioned place preference” value in [7] is on record as “increase in the time spent on the drug side”. Moreover, the Self-administration entry in data set [13] is reported as “resulted in significant self-administration”. Further, the “Motor impairment (rotorod)” value in data set [9] was “significantly above that of vehicle controls”.
